From patent publication US9713651B2, “Compositions, methods, and systems for the synthesis and use of imaging agents” (Lantheus Medical Imaging, Inc., priority 2012, dated 2017)

Assay: Tissue distribution of 18F imaging agents in rats
Type: in vivo, Male Sprague Dawley rats
Conditions: rat, iv tail vein ~15 μCi, ± SEM; for Blood, imaging agent distribution at 15 min / Brain, imaging agent distribution at 15 min / Femur, imaging agent distribution at 15 min / Heart, imaging agent distribution at 15 min / Kidney, imaging agent distribution at 15 min / Liver, imaging agent distribution at 15 min / Lung, imaging agent distribution at 15 min / Muscle, imaging agent distribution at 15 min / Pancreas, imaging agent distribution at 15 min / Spleen, imaging agent distribution at 15 min: 15 min post injection; for Blood, imaging agent distribution at 60 min / Brain, imaging agent distribution at 60 min / Femur, imaging agent distribution at 60 min / Heart, imaging agent distribution at 60 min / Kidney, imaging agent distribution at 60 min / Liver, imaging agent distribution at 60 min / Lung, imaging agent distribution at 60 min / Muscle, imaging agent distribution at 60 min / Pancreas, imaging agent distribution at 60 min / Spleen, imaging agent distribution at 60 min: 60 min post injection
Protocol: Anesthetized (sodium pentobarbital at 50 mg/kg, ip or isoflurane gas inhalation) Male Sprague Dawley rats (250-350 g) received an iv injection of the imaging agent (˜15 μCi) via the tail vein. At 15 or 60 min post injection, the animals were euthanized and the required tissue samples harvested. All samples were then weighed and counted for radioactivity (Wallac Wizard 1480 or Packard Cobra II Autogamma); regional tissue uptake of the imaging agent was thus expressed as a percentage of the total injected dose per gram of tissue (% ID/g).
The generic structure depicted below highlights specific structural features evaluated during distribution experiments.

| Compound | Blood, imaging agent distribution at 15 min [% ID/g] | Brain, imaging agent distribution at 15 min [% ID/g] | Femur, imaging agent distribution at 15 min [% ID/g] | Heart, imaging agent distribution at 15 min [% ID/g] | Kidney, imaging agent distribution at 15 min [% ID/g] | Liver, imaging agent distribution at 15 min [% ID/g] | Lung, imaging agent distribution at 15 min [% ID/g] | Muscle, imaging agent distribution at 15 min [% ID/g] | Pancreas, imaging agent distribution at 15 min [% ID/g] | Spleen, imaging agent distribution at 15 min [% ID/g] | Blood, imaging agent distribution at 60 min [% ID/g] | Brain, imaging agent distribution at 60 min [% ID/g] | Femur, imaging agent distribution at 60 min [% ID/g] | Heart, imaging agent distribution at 60 min [% ID/g] | Kidney, imaging agent distribution at 60 min [% ID/g] | Liver, imaging agent distribution at 60 min [% ID/g] | Lung, imaging agent distribution at 60 min [% ID/g] | Muscle, imaging agent distribution at 60 min [% ID/g] | Pancreas, imaging agent distribution at 60 min [% ID/g] | Spleen, imaging agent distribution at 60 min [% ID/g] |
| --- | --- | --- | --- | --- | --- | --- | --- | --- | --- | --- | --- | --- | --- | --- | --- | --- | --- | --- | --- | --- |
| CC(C)(C)n1ncc(OCc2cccc(COCCF)c2)c(Cl)c1=O [Example 67A] | 0.03 ± 0.01 | 0.14 ± 0.05 | 0.06 ± 0.02 | 0.65 ± 0.36 | 0.38 ± 0.08 | 0.08 ± 0.03 | 0.07 ± 0.01 | 0.09 ± 0.04 | 0.15 ± 0.05 | 0.05 ± 0.01 | 0.11 ± 0.02 | 0.14 ± 0.03 | 0.17 ± 0.04 | 0.84 ± 0.22 | 0.23 ± 0.03 | 0.11 ± 0.02 | 0.11 ± 0.02 | 0.18 ± 0.04 | 0.13 ± 0.03 | 0.09 ± 0.02 |
| CC(C)(C)n1ncc(OCc2ccc(OCCOCCF)cc2)c(Cl)c1=O [Example 67B] | 0.49 ± 0.02 | – | 0.80 ± 0.12 | 1.66 ± 0.06 | 2.25 ± 0.05 | 2.33 ± 0.09 | 0.49 ± 0.04 | 0.19 ± 0.00 | – | 0.41 ± 0.01 | 0.26 ± 0.04 | – | 0.78 ± 0.22 | 1.58 ± 0.13 | 1.17 ± 0.20 | 1.34 ± 0.22 | 0.27 ± 0.03 | 0.15 ± 0.04 | – | 0.20 ± 0.04 |
| CC(C)(C)n1ncc(OCc2ccc(OCCCF)c(Cl)c2)c(Cl)c1=O [Example 67C] | 0.26 ± 0.05 | 0.42 ± 0.01 | 0.33 ± 0.01 | 4.21 ± 0.29 | 3.04 ± 0.21 | 2.67 ± 0.17 | 0.50 ± 0.08 | 0.24 ± 0.04 | – | 0.37 ± 0.05 | 0.20 ± 0.07 | 0.44 ± 0.03 | 0.84 ± 0.07 | 4.54 ± 0.29 | 1.77 ± 0.25 | 0.65 ± 0.12 | 0.61 ± 0.32 | 0.26 ± 0.02 | – | 0.18 ± 0.02 |
| CC(C)(C)n1ncc(OCc2ccc(OCCF)cc2)c(Cl)c1=O [Example 67D] | 1.11 | 0.74 | 0.21 | 3.63 | 3.81 | 3.61 | 1.00 | 0.14 | – | 0.37 | 1.00 | 0.69 | 0.26 | 4.66 | 1.71 | 1.49 | 0.96 | 0.18 | – | 0.23 |
| [2H]C([2H])(OCCF)c1ccc(COc2cnn(C(C)(C)C)c(=O)c2Cl)cc1 [Example 67E] | 0.17 ± 0.02 | 0.97 ± 0.11 | 0.50 ± 0.04 | 4.80 ± 0.27 | 2.61 ± 0.18 | 0.66 ± 0.09 | 0.39 ± 0.05 | 0.77 ± 0.09 | 0.82 ± 0.07 | 0.36 ± 0.08 | 0.26 ± 0.03 | 0.62 ± 0.04 | 0.69 ± 0.05 | 3.61 ± 0.45 | 0.98 ± 0.04 | 0.53 ± 0.06 | 0.34 ± 0.03 | 0.69 ± 0.17 | 0.43 ± 0.05 | 0.25 ± 0.01 |
| CC(C)(C)n1ncc(OCc2cccc(OCCF)c2)c(Cl)c1=O [Example 67F] | 0.32 ± 0.05 | 0.50 ± 0.04 | 0.44 ± 0.04 | 1.92 ± 0.15 | 1.04 ± 0.10 | 0.40 ± 0.04 | 0.41 ± 0.03 | 0.60 ± 0.06 | 0.52 ± 0.04 | 0.28 ± 0.01 | 0.48 ± 0.01 | 0.38 ± 0.01 | 0.57 ± 0.04 | 0.87 ± 0.02 | 0.60 ± 0.03 | 0.39 ± 0.04 | 0.44 ± 0.03 | 0.43 ± 0.07 | 0.48 ± 0.01 | 0.31 ± 0.01 |
| CC(OCCF)c1ccc(COc2cnn(C(C)(C)C)c(=O)c2Cl)cc1 (centres unmarked) [Example 67G] | 0.50 ± 0.18 | 0.59 ± 0.03 | 0.40 ± 0.05 | 2.19 ± 0.36 | 0.88 ± 0.05 | 0.33 ± 0.10 | 0.46 ± 0.12 | 0.35 ± 0.04 | 0.41 ± 0.03 | 0.32 ± 0.11 | 0.47 ± 0.04 | 0.39 ± 0.05 | 0.58 ± 0.06 | 0.98 ± 0.16 | 0.44 ± 0.02 | 0.32 ± 0.03 | 0.38 ± 0.03 | 0.33 ± 0.01 | 0.26 ± 0.01 | 0.28 ± 0.03 |
| CC(C)n1ncc(OCc2ccc(COCCF)cc2)c(Cl)c1=O [Example 67H] | 0.45 ± 0.02 | 0.43 ± 0.05 | 0.36 ± 0.04 | 1.14 ± 0.09 | 0.78 ± 0.01 | 0.46 ± 0.01 | 0.41 ± 0.01 | 0.38 ± 0.02 | 0.44 ± 0.03 | 0.34 ± 0.03 | 0.55 ± 0.02 | 0.43 ± 0.02 | 0.71 ± 0.06 | 0.55 ± 0.03 | 0.49 ± 0.03 | 0.40 ± 0.02 | 0.42 ± 0.01 | 0.31 ± 0.02 | 0.32 ± 0.02 | 0.35 ± 0.02 |
